{
  "source": "patent US20230040415A1",
  "about": "(PureTech LYT 100, Inc., priority 2020, published 2023)",
  "key": {"[1]": {"test_system": "Primary Mouse Lung Fibroblasts", "experiment": "TGF-β-induced insoluble collagen synthesis, 6-well plate format (Sircol)", "format": "cell-based", "conditions": "Fibroblast, TGF-β 5 ng/ml, 72 hrs, p=0.026, read-out: inhibition of TGF-β-induced total collagen", "description": "One hundred thousand Primary Mouse Lung Fibroblasts were plated in 6-well plates and incubated in complete DMEM until they reached confluency. The incubation medium was removed and complete DMEM containing Prolin (10 μM) and Ascorbic acid (20 μg/ml) was added.\nSupernatant was removed, cells were washed with cold PBS, 1 ml Sircol reagent was added. The Sircol reagent contains the collagen binding dye Sirius red. The cells were scraped off with Sircol reagent and samples were shaken for 5 h at room temperature (RT), centrifuged at 10,000 rpm for 5 min, supernatant was removed, the pellet was washed in 0.5 M acetic acid to remove unbound dye, and recentrifuged at 10,000 rpm for 5 min, supernatant was removed and the final pellet was dissolved in 1 ml 0.5M NaOH and shaken at RT for 5 h. A sample of 100 μl of resultant solution was placed in 96-well. The color reaction was assessed by optical density at a wave length of 600 nm."}, "[2]": {"test_system": "NASH mice", "experiment": "NASH mouse model (streptozotocin + high fat diet), liver histology", "format": "in vivo", "conditions": "n = 8", "excerpt": "Non-alcoholic steatohepatitis (NASH) is characterized by lobular inflammation, hepatocyte ballooning and degeneration progressing to liver fibrosis. […] In addition, nine non-NASH mice were fed with a normal diet and monitored."}, "[3]": {"experiment": "MAD study adverse event profile", "format": "in vivo", "quoted_text": "All subjects in Part 1 and Part 2 will be monitored for safety (including assessment of chemistry, haematology and urinalysis parameters, electrocardiograms [ECGs], vital signs and adverse events [AEs]) and samples will be collected for assessment of PK at predefined time points pre and post-dose as delineated in the Schedule of Events."}, "[4]": {"experiment": "Food effect study Part 2, single 500 mg dose fed vs fasted", "format": "in vivo, human", "conditions": "human, plasma, oral, 500 mg, LYT-100 @500 mg single dose, analyte = label", "description": "The comparison will be based on Day 1, Day 2 and Day 3 PK plasma samples after the first dose of study drug on Day 1 under fast and fed conditions of Part 2.\nSubjects will be admitted to the CRU on Day −1 and will fast overnight for at least 10 h."}, "[5]": {"test_system": "Primary Mouse Lung Fibroblasts", "experiment": "TGF-β-induced soluble fibronectin ELISA", "format": "cell-based", "conditions": "Fibroblast", "description": "Approximately 5,000 primary mouse lung fibroblasts were plated in complete DMEM in 96 well plates and incubated for 3 days at which time the cultures achieved confluency. After cells reached to confluency, medium was removed and fresh DMEM supplemented with ascorbic acid (20 μg/ml) and prolin (10 μM) was added. […] One hour later, TGF-β (5 ng/ml) was added to the appropriate cultures at a final concentration. After 72 hours, 200 μl samples of the supernatant were placed onto an ELISA plate and incubated overnight. After blocking with %1 BSA for 2 h, plates were incubated with either an anti-collagen type I antibody or an anti-fibronectin antibody.\nThe plates were washed after 1 hour and incubated with secondary horseradish peroxidase-conjugated antibodies (anti-goat for the collagen antibody, anti-rabbit for the fibronectin antibody). After a series of washing steps the color reagent TMB (3,3′,5,5′-Tetramethylbenzidine) was added and 15 minutes later the reactions were terminated with equal volumes of 2 N H2SO4. The levels of soluble collagen and fibronectin were determined by evaluating absorbance at 450 nm."}, "[6]": {"test_system": "L929 cells", "experiment": "TGF-induced collagen synthesis in L929 cells, 96-well plate format (SIRCOL)", "format": "cell-based", "conditions": "500 μM", "description": "Five thousand L929 cells were plated in complete DMEN and incubated until confluency for 3 days. Medium was removed and complete DMEM containing Prolin (20 μg/ml) and ascorbic acid (10 μM) was added. […] Cells were further incubated for 72 hrs. Supernatant was removed, 0.5% gluteraldehyde was added for 30 min at RT, removed, washed 3× with dd water, 0.5 M acetic acid was added for 30 min at RT, removed, washed with water, air dried and 100 μl SIRCOL dye was added for 5 h at RT. Dye was removed, plate was washed extensively under running water, air dried and 200 μl of 0.5 M NaOH was added, plates were shaken at RT for 1 h, and OD was determined at 600 nm."}},
  "note": "Read-outs that look alike come from different tables or passages of the source.",
  "data": [
    {"compound": "[2H]C([2H])([2H])c1ccc(=O)n(-c2ccccc2)c1", "note": "[LYT-100, 5-(methyl-d3)-1-phenylpyridin-2-(1H)-one]", "values": [
      {"measurement": "inhibition at 500 µM", "setting": "[1]", "value": 15, "unit": "%"},
      {"measurement": "NAS (mean ± SD)", "setting": "[2]; 30 mg/kg twice daily oral", "value": "4.0 ± 1.1"},
      {"measurement": "Hepatocyte ballooning score 2 (Many cells/prominent ballooning), number of animals", "setting": "[2]", "value": 8},
      {"measurement": "Lobular Inflammation score 1 (<2 foci/200x), number of animals", "setting": "[2]", "value": 5},
      {"measurement": "Lobular Inflammation score 2 (2-4 foci/200x), number of animals", "setting": "[2]", "value": 3},
      {"measurement": "Steatosis score 0 (<5%), number of animals", "setting": "[2]", "value": 4},
      {"measurement": "Steatosis score 1 (5-33%), number of animals", "setting": "[2]", "value": 3},
      {"measurement": "Steatosis score 2 (>33%-66%), number of animals", "setting": "[2]", "value": 1},
      {"measurement": "tolerability of 750 mg dosing", "setting": "[3]; 750 mg BID", "value": "surprisingly well tolerated"},
      {"measurement": "most common adverse events", "setting": "[3]; blinded MAD data", "value": "headache and mild abdominal discomfort"},
      {"measurement": "severity of adverse events", "setting": "[3]; blinded MAD data, 100-1000 mg BID, 5 days", "value": "mild and transient"},
      {"measurement": "AUC", "setting": "[4]; read-out: AUC, Fasted", "value": 60900, "unit": "ng·h/mL"},
      {"measurement": "AUC", "setting": "[4]; read-out: AUC, Fed", "value": 49500, "unit": "ng·h/mL"},
      {"measurement": "Cmax", "setting": "[4]; read-out: Cmax, Fasted", "value": 10300, "unit": "ng/mL"},
      {"measurement": "Cmax", "setting": "[4]; read-out: Cmax, Fed", "value": 7900, "unit": "ng/mL"},
      {"measurement": "inhibition at 500 µM", "setting": "[5]; TGF-β 5 ng/ml, 72 hours, p=0.0185, read-out: inhibition of TGF-β-dependent induction of soluble fibronectin", "value": 11, "unit": "%"},
      {"measurement": "inhibition at 500 µM", "setting": "[5]; no TGF-β, p=0.03, read-out: inhibition of background level of soluble fibronectin", "value": 10, "unit": "%"},
      {"measurement": "total collagen level in the absence of TGF-β induction", "setting": "[6]", "value": "significantly inhibited or reduced"},
      {"measurement": "TGF-β-induced total collagen levels", "setting": "[6]; TGF-β 5 ng/ml, 72 hrs", "value": "significantly inhibited or reduced"}
    ]}
  ]
}
